Reference: ChEMBL document CHEMBL5729714, “Indazoles as hematopoietic progenitor kinase 1 (HPK1) inhibitors and methods using same” (2023)

target: Mitogen-activated protein kinase kinase kinase kinase 1 (Homo sapiens, UniProt Q92918); experiment: ADP-Glo kinase assay: HPK1 kinase activity was measured by Promega's ADP-Glo™ kinase assay. In this assay, 5 ng of recombinant human HPK1 (signalchem) is incubated with 5 μL of compounds (0.5% DMSO), 5 μL of MBP (0.5 μg/μl) and 5 μL of ATP (25 μM) in buffer (40 mM Tris, 7.5; 20 mM MgCl2; 0.1 mg/ml BSA; 5 μM DTT). The assay was started by incubating the reaction mixture in a 96-well plate at 30′ C for 40 minutes. After the incubation, 25 uL ADP-Glo reagent was added and the reaction was incubated at room temperature for 40-min to stop the reaction and degrade residual ATP. The ADP product was then converted to ATP by adding 50 uL per well of detection reagent. Luminescence was detected after 30-min room temperature incubation with the Molecular device I3X plate reader. The IC50 values were calculated from a series of percent inhibition values determined at a range of inhibitor concentration using software routines as implemented in the GraphPad Prism 7 software and SigmaPlot13.0.
Sequence (Q92918 whole entry): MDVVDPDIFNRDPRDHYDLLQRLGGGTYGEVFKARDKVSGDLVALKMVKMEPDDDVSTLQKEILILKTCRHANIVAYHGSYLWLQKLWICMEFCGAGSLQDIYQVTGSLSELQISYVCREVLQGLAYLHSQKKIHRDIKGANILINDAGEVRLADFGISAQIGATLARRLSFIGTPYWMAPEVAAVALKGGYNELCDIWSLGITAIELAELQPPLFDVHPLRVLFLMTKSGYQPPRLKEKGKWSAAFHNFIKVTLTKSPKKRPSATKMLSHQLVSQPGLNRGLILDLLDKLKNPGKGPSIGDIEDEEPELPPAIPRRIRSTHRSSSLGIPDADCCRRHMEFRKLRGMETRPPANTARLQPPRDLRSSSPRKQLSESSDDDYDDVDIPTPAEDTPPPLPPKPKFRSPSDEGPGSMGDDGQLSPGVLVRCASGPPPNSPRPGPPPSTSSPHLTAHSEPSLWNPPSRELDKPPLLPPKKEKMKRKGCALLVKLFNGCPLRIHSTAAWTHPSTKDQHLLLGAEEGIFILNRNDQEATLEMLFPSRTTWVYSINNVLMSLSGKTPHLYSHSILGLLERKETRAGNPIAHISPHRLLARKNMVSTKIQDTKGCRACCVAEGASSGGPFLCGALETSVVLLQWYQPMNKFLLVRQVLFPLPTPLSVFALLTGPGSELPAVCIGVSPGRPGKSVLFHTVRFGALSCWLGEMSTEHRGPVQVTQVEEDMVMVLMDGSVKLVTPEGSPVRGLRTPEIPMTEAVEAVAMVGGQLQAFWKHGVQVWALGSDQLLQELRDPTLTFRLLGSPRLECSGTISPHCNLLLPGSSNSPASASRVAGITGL

IC50 | SMILES
< 0.1 µM | O=C(Nc1nc2ccc(-c3c(Cl)c(F)c(N4CCCC4)c4[nH]ncc34)cc2s1)[C@@H]1C[C@@H]1F
< 0.1 µM | O=C(Nc1cn2cc(-c3c(Cl)c(F)c(C(F)C(F)(F)F)c4[nH]ncc34)ccc2n1)[C@@H]1C[C@@H]1F (some centres undefined)
< 0.1 µM | CCN(C)c1c(F)c(C)c(-c2ccc3nc(NC(=O)[C@@H]4C[C@@H]4F)cn3c2)c2cn[nH]c12
< 0.1 µM | CCN(C)c1c(F)c(C)c(-c2ccc3nc(NC(=O)[C@@H]4C[C@@H]4F)sc3c2)c2cn[nH]c12
< 0.1 µM | CCN(C)c1c(F)c(C)c(-c2ccc3nc(NC(=O)[C@@H]4C[C@@H]4F)sc3n2)c2cn[nH]c12
< 0.1 µM | N#Cc1c(F)c(Cl)c(-c2ccc3nc(NC(=O)[C@@H]4C[C@@H]4F)sc3c2)c2cn[nH]c12
< 0.1 µM | CC(=O)N(C)c1c(F)c(C)c(-c2ccc3nc(NC(=O)[C@@H]4C[C@@H]4F)cn3c2)c2cn[nH]c12
< 0.1 µM | CSCc1c(F)c(Cl)c(-c2ccc3nc(NC(=O)[C@@H]4C[C@@H]4F)cn3c2)c2cn[nH]c12
< 0.1 µM | CCOC(c1c(F)c(Cl)c(-c2ccc3nc(NC(=O)[C@@H]4C[C@@H]4F)cn3c2)c2cn[nH]c12)C(F)(F)F (some centres undefined)
< 0.1 µM | N#CCSc1c(F)c(Cl)c(-c2ccn3nc(NC(=O)[C@@H]4C[C@@H]4F)cc3c2)c2cn[nH]c12
< 0.1 µM | O=C(Nc1cc2cc(-c3c(C(F)(F)F)c(F)cc4[nH]ncc34)ccn2n1)[C@@H]1C[C@@H]1F
> 1 µM | Cc1c(F)c(S(C)(=O)=O)c2[nH]ncc2c1-c1ccc2nc(NC(=O)[C@@H]3C[C@@H]3F)sc2n1
< 0.1 µM | CSc1c(F)c(C)c(-c2ccn3nc(NC(=O)[C@@H]4C[C@H]4F)cc3c2)c2cn[nH]c12
< 0.1 µM | O=C(Nc1cn2cc(-c3c(Cl)c(F)c(NC4CCOC4)c4[nH]ncc34)ccc2n1)[C@@H]1C[C@@H]1F (some centres undefined)
< 0.1 µM | CC(c1c(F)c(Cl)c(-c2ccc3nc(NC(=O)[C@@H]4C[C@@H]4F)cn3c2)c2cn[nH]c12)n1ncnn1 (some centres undefined)
< 0.1 µM | C[S+]([O-])Cc1c(F)c(Cl)c(-c2ccc3nc(NC(=O)[C@@H]4C[C@@H]4F)cn3c2)c2cn[nH]c12 (some centres undefined)
< 0.1 µM | CC(=O)N(C)c1c(F)c(C)c(-c2ccc3nc(NC(=O)[C@@H]4C[C@@H]4F)sc3n2)c2cn[nH]c12
< 0.1 µM | CNC(=O)CSc1c(F)c(Cl)c(-c2ccc3nc(NC(=O)[C@@H]4C[C@@H]4F)sc3c2)c2cn[nH]c12
< 0.1 µM | C=Cc1c(F)cc2[nH]ncc2c1-c1ccc2nc(NC(=O)[C@@H]3C[C@@H]3F)sc2c1
< 0.1 µM | CS(=O)(=O)Cc1c(F)c(Cl)c(-c2ccc3nc(NC(=O)[C@@H]4C[C@@H]4F)cn3c2)c2cn[nH]c12
< 0.1 µM | N#CC(NC=O)c1c(F)c(Cl)c(-c2ccc3nc(NC(=O)[C@@H]4C[C@@H]4F)cn3c2)c2cn[nH]c12 (some centres undefined)
< 0.1 µM | CC(=O)N(C)c1c(F)c(C)c(-c2ccn3nc(NC(=O)[C@@H]4C[C@@H]4F)cc3c2)c2cn[nH]c12
< 0.1 µM | O=C(Nc1cn2cc(-c3c(Br)c(F)cc4[nH]ncc34)ccc2n1)[C@@H]1C[C@@H]1F
< 0.1 µM | O=C(Nc1cn2cc(-c3c(Cl)c(F)c(-c4cc[nH]c4)c4[nH]ncc34)ccc2n1)[C@@H]1C[C@@H]1F
< 0.1 µM | O=C(Nc1cn2cc(-c3c(Cl)c(F)c(CO)c4[nH]ncc34)ccc2n1)[C@@H]1C[C@@H]1F

IC50 | SMILES
< 0.1 µM | O=C(Nc1cc2cc(-c3c(Cl)c(F)c(CO)c4[nH]ncc34)ccn2n1)[C@@H]1C[C@@H]1F
< 0.1 µM | CC(F)c1c(F)c(Cl)c(-c2ccc3nc(NC(=O)[C@@H]4C[C@@H]4F)cn3c2)c2cn[nH]c12 (some centres undefined)
< 0.1 µM | Cn1ccc(-c2c(F)c(Cl)c(-c3ccc4nc(NC(=O)[C@@H]5C[C@@H]5F)cn4c3)c3cn[nH]c23)c1
< 0.1 µM | CCN(C)c1c(F)c(Cl)c(-c2ccc3nc(NC(=O)[C@@H]4C[C@@H]4F)sc3n2)c2cn[nH]c12
< 0.1 µM | COC(C)c1c(F)c(Cl)c(-c2ccc3nc(NC(=O)[C@@H]4C[C@@H]4F)cn3c2)c2cn[nH]c12 (some centres undefined)
< 0.1 µM | O=C(Nc1cc2cc(-c3c(Cl)c(F)c(C(O)C(F)(F)F)c4[nH]ncc34)ccn2n1)[C@@H]1C[C@@H]1F (some centres undefined)
< 0.1 µM | CC(O)c1c(F)c(Cl)c(-c2ccc3nc(NC(=O)[C@@H]4C[C@@H]4F)cn3c2)c2cn[nH]c12 (some centres undefined)
< 0.1 µM | Cn1cccc1-c1c(F)c(Cl)c(-c2ccc3nc(NC(=O)[C@@H]4C[C@@H]4F)cn3c2)c2cn[nH]c12
< 0.1 µM | CC(Nc1c(F)c(Cl)c(-c2ccc3nc(NC(=O)[C@@H]4C[C@@H]4F)cn3c2)c2cn[nH]c12)C(=O)N(C)C (some centres undefined)
< 0.1 µM | COC(c1c(F)c(Cl)c(-c2ccc3nc(NC(=O)[C@@H]4C[C@@H]4F)cn3c2)c2cn[nH]c12)C(F)(F)F (some centres undefined)
< 0.1 µM | CSc1c(F)c(C)c(-c2ccc3nc(NC(=O)[C@@H]4C[C@@H]4F)sc3n2)c2cn[nH]c12
< 0.1 µM | O=C(Nc1cn2cc(-c3c(Cl)c(F)c(NC4=NCCN4)c4[nH]ncc34)ccc2n1)[C@@H]1C[C@@H]1F
< 0.1 µM | Cn1nccc1-c1c(F)c(Cl)c(-c2ccc3nc(NC(=O)[C@@H]4C[C@@H]4F)cn3c2)c2cn[nH]c12
< 0.1 µM | CSc1c(F)c(C)c(-c2ccn3nc(NC(=O)[C@H]4C[C@H]4F)cc3c2)c2cn[nH]c12
< 0.1 µM | CSC(C)c1c(F)c(Cl)c(-c2ccc3nc(NC(=O)[C@@H]4C[C@@H]4F)cn3c2)c2cn[nH]c12 (some centres undefined)
< 0.1 µM | O=C(Nc1cn2cc(-c3c(Cl)c(F)c(CN4CCCC4)c4[nH]ncc34)ccc2n1)[C@@H]1C[C@@H]1F
< 0.1 µM | CCc1c(F)c(SC(C)C#N)c2[nH]ncc2c1-c1ccn2nc(NC(=O)[C@@H]3C[C@@H]3F)cc2c1 (some centres undefined)
< 0.1 µM | CC(=O)Nc1c(F)c(C)c(-c2ccn3nc(NC(=O)[C@@H]4C[C@@H]4F)cc3c2)c2cn[nH]c12
< 0.1 µM | Cn1ccnc1Sc1c(F)c(Cl)c(-c2ccc3nc(NC(=O)[C@@H]4C[C@@H]4F)cn3c2)c2cn[nH]c12
< 0.1 µM | O=C(Nc1cn2cc(-c3c(Cl)c(F)c(C(O)C(F)(F)F)c4[nH]ncc34)ccc2n1)[C@@H]1C[C@@H]1F (some centres undefined)
< 0.1 µM | CSc1c(F)c(C)c(-c2ccn3nc(NC(=O)[C@H]4C[C@@H]4F)cc3c2)c2cn[nH]c12
< 0.1 µM | CSc1c(F)c(C)c(-c2ccn3nc(NC(=O)C4CC4)cc3c2)c2cn[nH]c12
< 0.1 µM | CSc1c(F)c(SC)c2[nH]ncc2c1-c1ccc2nc(NC(=O)[C@@H]3C[C@@H]3F)sc2c1
< 0.1 µM | Cc1c(F)c([S+](C)[O-])c2[nH]ncc2c1-c1ccn2nc(NC(=O)[C@@H]3C[C@@H]3F)cc2c1 (some centres undefined)
